Format in all cases: in vivo
Assay [1] relates to housefly adults (Musca domestica). In words: Oil spray in (70 cm)^3 glass chamber, housefly adults, KT50 and mortality (Experimental Example 2). Particulars: for mortality at 0.1 %: Musca domestica. Here is the method:
(§1) 0.1 Part of each of the present compounds was dissolved in kerosene and made up to 100 parts with kerosene. Thus, the oil spray of each compound was obtained. Ten northern house mosquito female adults (Culex pipiens pallens) and 10 housefly adults (Musca domestica) were liberated in a (70 cm)^3 glass chamber. 0.7 ml of the oil spray was applied and the number of knocked down insects was counted with the lapse of time. The value of KT50 was obtained from the mean knock-down ratio of three replications according to Finney's graphic method. After 10 minutes, the knocked down insects were collected and transferred to a recovery container and fed with a 5% sugar solution. After 24 hours, the dead and alive were examined.

For assay [2], the system named is housefly female adults (Musca domestica). In words: Housefly female adults on treated filter paper in polyethylene cup, mortality after 48 hours (Experimental Example 1). Here is the method: Ten percent emulsifiable concentrates were prepared as in the Preparation example 3.
At the bottom of a polyethylene cup of 5.5 cm in diameter was placed a filter paper of the same size. 0.75 Ml of a 200-fold aqueous dilute solution of each emulsifiable concentrate (corresponding to 500 ppm) was dropped on the filter paper, and 30 mg of sucrose as a food was uniformly placed. Ten housefly female adults (Musca domestica) were liberated in the cup which was then covered with a lid. After 48 hours, the dead and alive were examined to obtain mortality (4 replications).

For assay [3], the system named is northern house mosquito female adults (Culex pipiens pallens). In words: Oil spray in (70 cm)^3 glass chamber, northern house mosquito female adults, KT50 and mortality (Experimental Example 2). Particulars: for mortality at 0.1 %: Culex pipiens. Here is the method: as §1
Assay [4] deals with adult German cockroaches (Blattella germanica). In words: Flushing out of German cockroaches from shelter (Experimental Example 8). Particulars: 0.7 ml of 0.1% oil spray. Here is the method: Ten adult German cockroaches (Blattella germanica) were liberated in a plywood-made trigonal prism like shelter with diet and water. The shelter containing cockroaches was made stand opening upward in a glass chamber (70 cm)^3, and 0.7 ml of 0.1% oil spray of each compound was applied to the chamber. The number of flushed out insects was counted with the lapse of time.

The subject of assay [5] is northern house mosquito female adults (Culex pipiens pallens). Briefly: Oil spray in (70 cm)^3 glass chamber, knock down of mosquitoes at 10 minutes (Experimental Example 3). Particulars: oil sprays of Preparation example 1 (0.2 part in 100), 0.7 ml, 10 minutes after spraying, read-out: KD%. An excerpt: Ten northern house mosquito female adults (Culex pipiens pallens) were liberated in a (70 cm)^3 glass chamber.

Setting [6] is: housefly adult, 0.1% oil spray, 0.7 ml.
Where [7] appears, read: northern house mosquito female adult, 0.1% oil spray, 0.7 ml.
[8] abbreviates: 200-fold aqueous dilution of emulsifiable concentrate (500 ppm), 48 hours, housefly female adults, read-out: Mortality.

A word on the mortality: it is the percentage killed.

The structures appear in SMILES notation. Like-named read-outs stand apart in the source and are kept apart here.

Consider `C#CCN1CC(=O)N(COC(=O)[C@@H]2[C@@H](C=C(Br)Br)C2(C)C)C1=O` [Present compound (11) (d-trans isomer), 1-Propargyl-3-hydantoinylmethyl 2,2-dimethyl-3-(2,2-dibromovinyl)cyclopropanecarboxylate], for which the mortality at 0.1 % in assay [1] (24 h) amounted to 30%; in assay [3] (24 h), 85%. Moreover, the KT50 in assay [1] (setting [6]) was 78 s; in assay [3] (setting [7]), 35 s. Further, the mortality at 500 µg/mL in assay [2] (48 h) was 100%.

Consider `C#CCN1CC(=O)N(COC(=O)C2C(C=C(Cl)Cl)C2(C)C)C1=O` (racemic) [Present compound (1) (dl-cis,trans isomer), 1-Propargyl-3-hydantoinylmethyl 2,2-dimethyl-3-(2,2-dichlorovinyl)cyclopropanecarboxylate], for which the mortality at 0.1 % in assay [1] (24 h) amounted to 60%; in assay [3] (24 h) it was 90%. The figures for the KT50 in assay [1] (setting [6]) and in assay [3] (setting [7]) were 96 s and 69 s, respectively. Further, the mortality at 500 µg/mL in assay [2] (48 h) came out at 100%. The Flushing out in assay [4] (38") amounted to 35%; in assay [4] (75") it was 65%; in assay [4] (150"), 75%; in assay [4] (300") it was 85%; in assay [4] (600"), 95%.

Take `C#CCN1CC(=O)N(COC(=O)[C@@H]2[C@H](C=C(Br)Br)C2(C)C)C1=O` [Present compound (11) (d-cis isomer), 1-Propargyl-3-hydantoinylmethyl 2,2-dimethyl-3-(2,2-dibromovinyl)cyclopropanecarboxylate]: the mortality at 0.1 % in assay [1] (24 h) is 10%; in assay [3] (24 h) it was 95%. Further, the KT50 in assay [1] (setting [6]) was 96 s; in assay [3] (setting [7]) it was 38 s. Further, in assay [2] (48 h), the mortality at 500 µg/mL is 100%.

Turning to `CC(C)=CC1C(C(=O)OCc2coc(Cc3ccccc3)c2)C1(C)C` (stereo not drawn) [Resmethrin, 5-benzyl-3-furylmethyl chrysanthemate, reference compound], the pest or weed control at 0.2 % in assay [5] amounted to 50%.

With `C#CCN1CC(=O)N(COC(=O)C(c2ccc(C)cc2)C(C)C)C1=O` (stereo not drawn) [Present compound (15), 1-Propargyl-3-hydantoinylmethyl α-(4-methylphenyl)isovalerate], in assay [5], the pest or weed control at 0.2 % came out at 90%. For the same compound, the mortality at 500 µg/mL in assay [2] (setting [8]) turned out to be 90%.

Turning to `C#CCN1C(=O)N(COC(=O)C2C(C=C(Cl)Cl)C2(C)C)C(=O)C1CC` (stereo not drawn) [Present compound (24), 1-Propargyl-5-ethyl-3-hydantoinylmethyl 2,2-dimethyl-3-(2,2-dichlorovinyl)cyclopropanecarboxylate], in assay [5], the pest or weed control at 0.2 % was found to be 85%.

Regarding `C#CCN1CC(=O)N(COC(=O)[C@@H]2[C@@H](C=C(C)C)C2(C)C)C1=O` [Present compound (7), 1-Propargyl-3-hydantoinylmethyl chrysanthemate], the mortality at 0.1 % in assay [1] (24 h) turned out to be 10%; in assay [3] (24 h), 100%. The KT50 in assay [1] (setting [6]) worked out at 72 s; in assay [3] (setting [7]), 30 s. In assay [2] (48 h), this compound displayed a mortality at 500 µg/mL of 100%.

For the compound `C=CCN1CC(=O)N(COC(=O)C(c2ccc(Cl)cc2)C(C)C)C1=O` (stereo not drawn) [Present compound (20), 1-Allyl-3-hydantoinylmethyl α-(4-chlorophenyl)isovalerate], the pest or weed control at 0.2 % in assay [5] turned out to be 85%.

In the case of `C#CCN1C(=O)N(COC(=O)C2C(C=C(C)C)C2(C)C)C(=O)C1C` (stereo not drawn) [Present compound (23), 1-Propargyl-5-methyl-3-hydantoinylmethyl chrysanthemate], the pest or weed control at 0.2 % in assay [5] came to 100%.

As to `C#CCN1C(=O)CN(COC(=O)C(c2ccc(F)cc2)C(C)C)C1=O` (stereo not drawn) [Present compound (21), 3-Propargyl-1-hydantoinylmethyl α-(4-fluorophenyl)isovalerate], in assay [5], the pest or weed control at 0.2 % was found to be 90%. Besides, in assay [2] (setting [8]), the mortality at 500 µg/mL is 90%.

Turning to `C#CCN1CC(=O)N(COC(=O)C(c2cccc(Cl)c2)C(C)C)C1=O` (stereo not drawn) [Present compound (14), 1-Propargyl-3-hydantoinylmethyl α-(3-chlorophenyl)isovalerate], the pest or weed control at 0.2 % in assay [5] is 85%. The mortality at 500 µg/mL in assay [2] (setting [8]) stood at 100%.

With `C#CCN1CC(=O)N(COC(=O)C(c2ccc3c(c2)OCO3)C(C)C)C1=O` (stereo not drawn) [Present compound (16), 1-Propargyl-3-hydantoinylmethyl α-(3,4-methylenedioxyphenyl)isovalerate], in assay [5], the pest or weed control at 0.2 % was found to be 100%. For the same compound, the mortality at 500 µg/mL in assay [2] (setting [8]) worked out at 90%.

Turning to `C#CCN1CC(=O)N(COC(=O)[C@@H]2[C@@H](C=C(Cl)Cl)C2(C)C)C1=O` [Present compound (1) (d-trans isomer), 1-Propargyl-3-hydantoinylmethyl 2,2-dimethyl-3-(2,2-dichlorovinyl)cyclopropanecarboxylate], the mortality at 0.1 % in assay [1] (24 h) came out at 80%; in assay [3] (24 h) it was 100%. For the same compound, the KT50 in assay [1] (setting [6]) was 60 s; in assay [3] (setting [7]) it was 30 s. The compound also yielded a mortality at 500 µg/mL in assay [2] (48 h) of 100%.

`C#CCN1CC(=O)N(COC(=O)[C@@H]2[C@@H](C=C(C)C=C)C2(C)C)C1=O` (relative stereo) [Present compound (10), 1-Propargyl-3-hydantoinylmethyl 2,2-dimethyl-3-(2-methylbutadienyl)cyclopropanecarboxylate]: the pest or weed control at 0.2 % in assay [5] was 90%. For the same compound, the mortality at 500 µg/mL in assay [2] (48 h) amounted to 95%.

On to `C#CCN1C(=O)CN(COC(=O)C2C(C=C(Cl)Cl)C2(C)C)C1=O` (stereo not drawn) [Present compound (4), 3-Propargyl-1-hydantoinylmethyl 2,2-dimethyl-3-(2,2-dichlorovinyl)cyclopropanecarboxylate], for which the mortality at 0.1 % in assay [1] (24 h) worked out at 30%; in assay [3] (24 h) it was 85%. For the same compound, the KT50 in assay [1] (setting [6]) is 280 s; in assay [3] (setting [7]), 50 s. This compound also gave a mortality at 500 µg/mL in assay [2] (48 h) of 100%.

Turning to `CC(C)=CC1C(C(=O)OCN2C(=O)C3=C(CCCC3)C2=O)C1(C)C` (stereo not drawn) [Tetramethrin, N-(chrysanthemoxymethyl)-3,4,5,6-tetrahydrophthalimide, reference compound], the mortality at 0.1 % in assay [1] (24 h) amounted to 20%; in assay [3] (24 h) it was 45%. Also, the values for the KT50 in assay [1] (setting [6]) and in assay [3] (setting [7]) were 372 s and 162 s, respectively.

Take `CCCN1CC(=O)N(COC(=O)C2C(C=C(Cl)Cl)C2(C)C)C1=O` (stereo not drawn) [Present compound (3), 1-Propyl-3-hydantoinylmethyl 2,2-dimethyl-3-(2,2-dichlorovinyl)cyclopropanecarboxylate]: in assay [5], the pest or weed control at 0.2 % worked out at 100%. The Flushing out was found to be 30% in assay [4] (38"); 45% in assay [4] (75"); 45% in assay [4] (150"); 50% in assay [4] (300"); 65% in assay [4] (600").

Turning to `C#CCN1CC(=O)N(COC(=O)C(c2ccc(Cl)c(Cl)c2)C(C)C)C1=O` (stereo not drawn) [Present compound (19), 1-Propargyl-3-hydantoinylmethyl α-(3,4-dichlorophenyl)isovalerate], the pest or weed control at 0.2 % in assay [5] was 85%.

On to `C#CCN1CC(=O)N(COC(=O)C(c2ccc(OC)cc2)C(C)C)C1=O` (stereo not drawn) [Present compound (17), 1-Propargyl-3-hydantoinylmethyl α-(4-methoxyphenyl)isovalerate], for which the mortality at 0.1 % in assay [1] (housefly adult, 0.1% oil spray, 0.7 ml, after 24 hours, read-out: Mortality) is 35%; in assay [3] (northern house mosquito female adult, 0.1% oil spray, 0.7 ml, after 24 hours, read-out: Mortality), 75%. The KT50 in assay [1] (setting [6]) was 280 s; in assay [3] (setting [7]), 140 s. In addition, the mortality at 500 µg/mL in assay [2] (setting [8]) is 95%.

Consider `CNC(=O)Oc1ccccc1OC(C)C` [Propoxur, reference compound], for which the Flushing out in assay [4] (38") was found to be 0%; in assay [4] (75"), 0%; in assay [4] (150"), 0%; in assay [4] (300"), 0%; in assay [4] (600"), 5%.

Regarding `C#CCN1CC(=O)N(COC(=O)[C@@H]2[C@@H](C=NOC)C2(C)C)C1=O` [Present compound (12), 1-Propargyl-3-hydantoinylmethyl 2,2-dimethyl-3-methoxyiminomethylcyclopropanecarboxylate], in assay [5], the pest or weed control at 0.2 % was 100%.

For `C#CCN1C(=O)N(COC(=O)C2C(C=C(Cl)Cl)C2(C)C)C(=O)C1C` (stereo not drawn) [Present compound (22), 1-Propargyl-5-methyl-3-hydantoinylmethyl 2,2-dimethyl-3-(2,2-dichlorovinyl)cyclopropanecarboxylate], the mortality at 0.1 % in assay [1] (24 h) amounted to 20%; in assay [3] (24 h), 85%. For the same compound, the KT50 came out at 114 s in assay [1] (setting [6]) and 75 s in assay [3] (setting [7]).

The record behind these values is US4176189A, “Insecticidal and acaricidal hydantoin N-methylol esters” (Sumitomo Chemical Company, Limited, priority 1977, dated 1979).
